SMILES strings stand for the structures.

In experiment [1] the target is Xanthine oxidase (from bovine milk, Sigma) (Bos taurus (Bovine), UniProt P80457). The experiment in a line: Xanthine oxidase inhibitory activity. The note with it: xanthine substrate, 10 minutes at room temperature, absorbance at 290 nm. The class given is biochemical. Here is the method: (1) Preparation of Test Compounds
Test compounds were dissolved in DMSO (Wako) at 40 mM concentration and then diluted to intended concentrations with phosphate-buffered saline (PBS).
(2) Method for Measurement
Xanthine oxidase (from bovine milk, Sigma) was prepared with phosphate-buffered saline (PBS) at 0.02 units/mL, and then the solution was added to 96 well plates at 50 μL/well. In addition, test compounds diluted with PBS were added at 50 μL/well. Xanthine (Wako) at 200 μM prepared with PBS was added at 100 μL/well, and the reaction was conducted for 10 minutes at room temperature. Absorbance at 290 nm was measured using a microplate reader SpectraMax Plus 384 (Molecular device). The absorbance under a condition without xanthine is 0%, and control without test compounds is 100%. Fifty % inhibitory concentration of a test compound (IC50) was calculated (Table 60). Ex. No in the table indicates Example number.

Experiment [2] has as its system BBMV from human kidney cortex (uric acid uptake). The experiment in a line: Inhibitory activity of uric acid transport with brush-border membrane vesicles (BBMV). Particulars: 10 μM test compound; uptake of 14C-labeled uric acid into human kidney cortex BBMV, 20 seconds. It is filed as biochemical. The protocol:
Inhibitory activity of uric acid transport of test compounds was performed on the basis of methods described in a reference (Am. J. Physiol. 266 (Renal Fluid Electrolyte Physiol. 35): F797-F805, 1994) with a partial modification.
(1) Preparation of BBMV from Human Kidney Cortex
BBMV from human kidney cortex were purchased from KAC. Renal cortex was dissected from human kidney and cut into small pieces. Then, the cortex was homogenized in 5 volumes of ice-cold isotonic buffer (300 mM mannitol, 5 mM ethylene glycol-bis-(β-aminoethylether)-N,N,N′,N′-tetraacetic acid (EGTA), 12 mM tris(hydroxymethyl)aminomethane (Tris).HCl, pH 7.4). After adding 1 M magnesium chloride to a final concentration of 12 mM, and then the suspension was mixed and allowed to stand on ice for 15 minutes. […] After centrifugation at 30,000×g for 30 minutes at 4° C., the pellet was resuspended in buffer 2, and then the protein concentration was determined. […]
BBMV were thawed on ice. […] The uptake of uric acid into BBMV was measured by the rapid-filtration technique. […] Furthermore, filters were washed twice with 3 mL of stop solution and dissolved in 10 mL of Filter-Count (PerkinElmer), and the radioactivity was counted in a liquid scintillation counter (PerkinElmer). The radioactivity associated with the filters in the absence of BBMV was used as corrections. […]

Xanthine oxidase (from bovine milk, Sigma), sequence (P80457 whole entry): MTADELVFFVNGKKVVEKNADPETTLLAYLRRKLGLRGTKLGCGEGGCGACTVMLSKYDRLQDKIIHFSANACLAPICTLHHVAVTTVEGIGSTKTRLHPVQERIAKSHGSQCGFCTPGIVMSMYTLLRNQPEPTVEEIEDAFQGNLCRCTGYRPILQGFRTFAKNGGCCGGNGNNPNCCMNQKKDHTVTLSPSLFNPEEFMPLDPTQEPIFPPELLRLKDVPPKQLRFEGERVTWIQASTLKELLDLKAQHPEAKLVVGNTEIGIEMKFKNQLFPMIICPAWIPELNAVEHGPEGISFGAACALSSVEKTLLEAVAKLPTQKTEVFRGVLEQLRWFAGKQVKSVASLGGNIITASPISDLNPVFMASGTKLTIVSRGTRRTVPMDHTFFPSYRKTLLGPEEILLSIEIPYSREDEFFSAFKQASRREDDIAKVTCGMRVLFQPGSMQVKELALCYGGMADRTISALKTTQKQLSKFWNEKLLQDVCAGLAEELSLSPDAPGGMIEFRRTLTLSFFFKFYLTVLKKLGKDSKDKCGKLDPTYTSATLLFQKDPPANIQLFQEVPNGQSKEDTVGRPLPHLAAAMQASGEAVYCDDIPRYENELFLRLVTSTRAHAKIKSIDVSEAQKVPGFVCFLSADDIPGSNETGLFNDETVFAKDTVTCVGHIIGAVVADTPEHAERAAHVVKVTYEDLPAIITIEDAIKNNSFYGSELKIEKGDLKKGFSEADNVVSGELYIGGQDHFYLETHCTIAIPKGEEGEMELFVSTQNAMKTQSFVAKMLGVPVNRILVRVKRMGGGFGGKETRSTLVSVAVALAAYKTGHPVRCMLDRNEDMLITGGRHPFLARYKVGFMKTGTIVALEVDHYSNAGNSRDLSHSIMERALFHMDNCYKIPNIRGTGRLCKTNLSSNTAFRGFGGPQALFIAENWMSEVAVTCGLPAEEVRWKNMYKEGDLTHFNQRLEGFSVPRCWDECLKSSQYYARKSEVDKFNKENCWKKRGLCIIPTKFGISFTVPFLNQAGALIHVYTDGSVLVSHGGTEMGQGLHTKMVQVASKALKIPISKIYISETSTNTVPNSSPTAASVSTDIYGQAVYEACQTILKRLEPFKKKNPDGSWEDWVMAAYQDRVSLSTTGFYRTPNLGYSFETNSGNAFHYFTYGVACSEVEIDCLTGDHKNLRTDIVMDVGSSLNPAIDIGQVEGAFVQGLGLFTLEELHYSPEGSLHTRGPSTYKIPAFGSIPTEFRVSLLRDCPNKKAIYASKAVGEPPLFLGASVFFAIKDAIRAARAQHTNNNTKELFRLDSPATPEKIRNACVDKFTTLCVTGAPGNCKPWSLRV

Take `CC(C)c1ccc2c(C#N)cn(-c3ccc(C(=O)O)c(O)c3)c2c1` [Example 237]: 12.6 nM corresponded to half-maximal inhibition in experiment [1] (IC50). In experiment [2], the inhibition % worked out at 64%.

These data come from patent publication US8993616B2, “(aza)indole derivative and use thereof for medical purposes” (Kissei Pharmaceutical Co., Ltd., priority 2007, dated 2015).
